One block for each compound: values may come before it.
Experiments:
[1] = test system: IκB degradation and p65 nuclear translocation; details: 3 h of cotreatment
BEAS-2B cells [2] = assay: Cell viability; assay type: cell-based, human; details: for Protection against the antiproliferative effects of elastase: Figure 4C, caspase 3 inhibitor 10 μM pre-incubation
[3] = test system: transcript levels in BEAS-2B cells; details: 3 h cotreatment
BEAS-2B cells [4] = assay: Cell detachment and morphology change; assay type: cell-based, human; details: for Elastase-induced cell rounding (morphology change): 10 μM cotreatment, 3 h
sICAM-1 = details: 6 h cotreatment, culture supernatant
[5] = target: Human Pancreatic Chymotrypsin (Homo sapiens, UniProt P17538); assay: In vitro protease assay, human pancreatic chymotrypsin; assay type: biochemical
panel of 68 proteases = details: 10 μM
[6] = test system: caspase 3/7 activity of BEAS-2B cells; details: 100 nM elastase; 10 μM inhibitor pre-incubation

Human Pancreatic Chymotrypsin, sequence (P17538 19-263): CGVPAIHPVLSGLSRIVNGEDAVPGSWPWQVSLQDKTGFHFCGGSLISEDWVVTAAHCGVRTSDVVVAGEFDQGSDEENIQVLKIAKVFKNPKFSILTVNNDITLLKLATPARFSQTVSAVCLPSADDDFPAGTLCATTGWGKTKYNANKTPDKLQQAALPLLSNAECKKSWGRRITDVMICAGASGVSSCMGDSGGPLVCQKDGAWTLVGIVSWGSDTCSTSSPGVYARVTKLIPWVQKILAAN

Compound: C/C=C1\NC(=O)[C@@H](NC(=O)[C@@H](NC(=O)[C@@H](COS(=O)(=O)[O-])OC)C(C)C)[C@@H](C)OC(=O)[C@H]([C@H](C)CC)NC(=O)[C@H](Cc2ccccc2)N(C)C(=O)[C@H](Cc2ccccc2)N2C(=O)[C@H](CC[C@H]2O)NC1=O.[Na+] [Symplostatin 5 (1), Symplostatin 5]
Elastase-induced IκB degradation and p65 nuclear translocation [1]: dose-dependently inhibited | Effect on proliferation of BEAS-2B cells (BEAS-2B cells [2]; up to 100 μM, with solvent control or 100 nM elastase, 24 h): did not significantly affect the proliferation | Elastase-induced increase in IL1B transcript levels (RT-qPCR) [3]: strongly abrogated | Elastase-induced cell rounding (morphology change) (BEAS-2B cells [4]): prevented this effect of elastase | Concentration that decreased elastase-induced sICAM-1 level (sICAM-1): ≥ 1 µM

Compound: elastase: exogenous elastase used to challenge BEAS-2B cells
IC50 (BEAS-2B cells [2]; read-out: Antiproliferative IC50 of elastase (MTT), BEAS-2B, 24 h): 77.5 ± 4.9 nM

IC50 [5]: > 10000 nM
Compound: CC(C)(C)C(=O)Oc1ccc(S(=O)(=O)Nc2ccccc2C(=O)NCC(=O)O)cc1 [Sivelestat]
Protection against the antiproliferative effects of elastase (BEAS-2B cells [2]): partially protected | Concentration required to completely negate elastase-induced cytotoxicity (BEAS-2B cells [2]; elastase co-treatment, 24 h): 100 µM | Elastase-induced cell rounding (morphology change) (BEAS-2B cells [4]): prevented this effect of elastase | Concentration showing cytoprotective effect against cell detachment (BEAS-2B cells [4]; 12 h): 100 µM

Compound: C/C=C1\NC(=O)[C@@H](NC(=O)[C@H](CCC(N)=O)NC(=O)CCCCC)[C@@H](C)OC(=O)[C@H](C(C)C)NC(=O)[C@H](Cc2ccc(O)cc2)N(C)C(=O)[C@H](Cc2ccccc2)N2C(=O)[C@H](CC[C@H]2O)NC1=O [Lyngbyastatin 7]
Inhibition of the serine proteases elastase, chymotrypsin and proteinase K (panel of 68 proteases): completely inhibiting

Compound: COC(=O)CC[C@H](NC(=O)[C@H](CC(=O)OC)NC(=O)OCc1ccccc1)C(=O)N[C@H](C(=O)N[C@@H](CC(=O)OC)C(=O)CF)C(C)C
Effect on elastase-induced increase in caspase activation [6]: abrogated | Protection against the antiproliferative effects of elastase (BEAS-2B cells [2]): partially protected

Source: PMC3624605 (Journal of medicinal chemistry, 2013)
